Laboratory results from patent publication US10508281B2, “Disruption of ROCK1 gene leads to plants with improved traits” (priority 2014, dated 2019).
Residues, ends and D or L forms follow the SMILES beside them. *: point of attachment. Cbz = O=C(OCc1ccccc1)*

Legend:
ROCK1 = target: T1, ROCK1 (Arabidopsis thaliana, UniProt Q8LES0); assay: Nucleotide-sugar transport assay: uptake of radiolabeled nucleotide sugars into yeast microsomes expressing FLAG-ROCK1; assay type: biochemical; conditions: ER/Golgi microsomal vesicles from S. cerevisiae expressing FLAG-ROCK1 vs empty vector control
T1 construct: FLAG (N); made in house; host or cells: Saccharomyces cerevisiae BY4741 (microsomal vesicles)
T1 sequence (Q8LES0 1-325): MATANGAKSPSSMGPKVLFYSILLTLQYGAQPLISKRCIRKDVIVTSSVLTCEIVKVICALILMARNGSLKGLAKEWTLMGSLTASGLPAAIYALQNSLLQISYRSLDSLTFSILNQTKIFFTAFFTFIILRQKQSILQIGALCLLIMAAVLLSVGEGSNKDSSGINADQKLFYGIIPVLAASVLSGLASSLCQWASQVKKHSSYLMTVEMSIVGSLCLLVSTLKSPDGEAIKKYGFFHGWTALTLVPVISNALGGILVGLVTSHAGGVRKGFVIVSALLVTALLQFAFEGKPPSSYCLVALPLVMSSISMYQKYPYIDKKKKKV
Protocol: (B) Measurement of ROCK1-mediated uptake of radiolabeled nucleotide sugars into yeast microsomes expressing FLAG-ROCK1 or empty vector. Means±SEM (n=3; *, P<0.05, t test).
Nucleotide-sugar transport into Saccharomyces cerevisiae (BY4741) transformed with the construct pYEScupFLAGK-ROCK1 or the empty vector control was measured as described by Ashikov et al. (2005): “cultured cells were harvested by centrifugation (5 min at 1,500×g) and washed twice with ice-cold 10 mm NaN3. The weight of wet cells was measured, and cells were resuspended in zymolyase buffer (3 ml/g of cells; 50 mm potassium phosphate, pH 7.5; 1.4 m sorbitol; 10 mm NaN3 and 0.3% β-mercaptoethanol) containing 0.6 mg/ml of zymolyase-100T. The suspension was incubated for 20 min at 30° C. Spheroplasts were collected by centrifugation (5 min at 1,000×g) and resuspended in lysis buffer (4 ml/g of cells; 10 mm Hepes-Tris, pH 7.4; 0.8 m sorbitol; 1 mm EDTA) containing complete EDTA-free protease inhibitor mixture (Roche Applied Science). After homogenization with 10 strokes in a Dounce homogenizer, the lysate was centrifuged (5 min, 1,500×g) to remove unlysed cells and debris. Endoplasmic reticulum- and Golgi-rich fractions were then obtained by centrifugation at 10,000×g for 10 min (endoplasmic reticulum) and 100,000×g for 1 h (Golgi). The 100,000×g pellet was carefully resuspended in lysis buffer (0.8 ml/g of cells), and aliquots of 100 μl were snap-frozen and kept at −80° C. Protein concentrations were determined using the BCA™ kit (Pierce). For transport assay reactions, equal volumes (50 μl of each) of 2 mm radioactive nucleotide sugar (2,000-4,000 dpm/pmol) in assay buffer (10 mm Tris-HCl, pH 7.0; 0.8 m sorbitol; 2 mm MgCl2) and vesicle preparation (equivalent to 75-100 μg of protein) were incubated for 30 s at 30° C. Reactions were stopped by dilution with 1 ml of assay buffer containing 1 μm respective cold nucleotide sugar. The separation of vesicles and nucleotide sugars was achieved by filtration trough nitrocellulose filter (MF™ membrane filters Millipore, Bedford, Mass.). Filters were washed three times with 2 ml of ice-cold assay buffer containing the corresponding cold nucleotide sugar at a concentration of 1 μm, and radioactivity associated with the vesicular fraction was measured by liquid scintillation in a LS 5000CE counter (Beckman Coulter). Golgi vesicles from yeast cells transformed with an empty vector were used to measure endogenous transport.”
To directly test the transport specificity of ROCK1, a FLAG-tagged ROCK1 protein was expressed in Saccharomyces cerevisiae, which has, with the exception of GDP-Man, a low background for most nucleotide sugar transport activities and is commonly used as a heterologous test system for NSTs. […]

ipt3,5,7 = assay: Restoration of growth of ipt3,5,7 mutant plants by CKX inhibitor application; assay type: in vivo, Arabidopsis thaliana; conditions: shoots sprayed with 10 μM INCYDE every 3 days; compared with suppression by rock1-1
Protocol: If not otherwise denoted, Arabidopsis thaliana Columbia-0 was used as the wild type. The T-DNA insertion lines rock1-2 (SALK_001259) and rock1-3 (901C01) were used. The following lines were described previously: 35S:CKX1-11, 35S:CKX2-9, 35S:CKX3-9, 35S:CKX7-GFP-26, ahk2-5, ahk3-7, cre1-2, atipt1, atipt3-2, atipt5-2, atipt7-1, cgl1 C6 (cgl1-2) and ARR5:GUS. Plants were grown in vitro on half-strength Murashige and Skoog (MS) medium containing 10 g/L sucrose, 0.5 g/L MES and 8 g/L phytagel. For analysis of root growth, 12 g/L phytagel and cytokinin or DMSO as solvent control were added to the medium. Plants were grown under long day conditions (16 h light/8 h dark; 21/18° C.) in vitro or in the green house. Shoots of soil grown plants were sprayed with 10 μM INCYDE and 0.01% Silwet L-77 every 3 days starting 3 days after germination. The binary vector constructs were transformed into Arabidopsis plants by Agrobacterium tumefaciens (strain GV3101:pMP90) mediated floral dip method.
To gain information about the specificity of rock1 in suppressing CKX overexpression phenotypes, rock1-1 was introgressed into 35S:CKX2, 35S:CKX3 and 35S:CKX7 plants.

myc-CKX1 = myc-CKX1 level in seedlings after proteasome inhibitor treatment (immunoblotting and densitometry); assay type: in vivo, Arabidopsis thaliana; conditions: seedlings treated with 100 μM MG132
Protocol: FIG. 4. ROCK1 regulates ERQC and CKX protein stability. (A) N-glycosylation status of myc-CKX1 protein in wild-type and rock1 seedlings. Protein extracts were treated with PNGase F or EndoH and the size of myc-CKX1 was compared to mock-treated control by SDS-PAGE and immunoblot with anti-myc antibody. (B) The loss of GnT-I activity in cgl1 mutants has no influence on the shoot phenotype of 35S:CKX1 plants (21 dag). (C) The level of myc-CKX1 is decreased in rock1 compared to wild type. Total protein extracts were analyzed by immunoblot with anti-myc antibody. Coomassie blue staining of Rubisco large subunit (RbcL) was used as loading control. Relative densitometric analysis of the myc-CKX1 signal is shown. […] Protein extracts were prepared from 7-d-old seedlings treated with mock or 100 μM CHX for indicated times and analyzed by immunoblotting. […] Seedlings were treated with 100 μM MG132 and myc-CKX1 analyzed by immunoblotting and densitometry. […] (F) Quantitative real-time PCR analysis of UPR genes in shoots of soil-grown seedlings 9 dag measured by. […]
Proteins were extracted and the concentration determined as described for the CKX activity assay. […] Intensities were normalized to the loading control and calculated relative to wild type samples. […]
To test CKX1 turnover, we analyzed myc-CKX1 levels in the presence of the translation inhibitor cycloheximide (CHX). […]

CC1OC(OP(=O)(O)OP(=O)(O)OCC2OC(n3cnc4c(=O)[nH]c(N)nc43)C(O)C2O)C(O)C(O)C1O (stereo not shown) [GDP-Fuc]
relative transport in ROCK1 microsomes versus empty vector control (in words) (ROCK1): lowered

Nc1nc2c(ncn2[C@@H]2O[C@H](COP(=O)(O)OP(=O)(O)O[C@H]3O[C@H](CO)[C@@H](O)[C@H](O)[C@@H]3O)[C@@H](O)[C@H]2O)c(=O)[nH]1 [GDP-Man]
relative transport in ROCK1 microsomes versus empty vector control (in words) (ROCK1): lowered

CC(=O)N[C@H]1[C@@H](OP(=O)(O)OP(=O)(O)OC[C@H]2O[C@@H](n3ccc(=O)[nH]c3=O)[C@H](O)[C@@H]2O)O[C@H](CO)[C@H](O)[C@@H]1O [UDP-GalNAc, UDP-N-acetylgalactosamine]
uptake in vesicles expressing ROCK1, increased in comparison to the control (ROCK1): 7 fold

COc1cccc(Nc2nc(Cl)nc3nc[nH]c23)c1 [chemical inhibitor of CKX activity]
restoration of ipt3,5,7 growth (ipt3,5,7): comparable restoration of ipt3,5,7 growth

CC(=O)N[C@H]1[C@@H](OP(=O)(O)OP(=O)(O)OC[C@H]2O[C@@H](n3ccc(=O)[nH]c3=O)[C@H](O)[C@@H]2O)O[C@H](CO)[C@@H](O)[C@@H]1O [UDP-GlcNAc, UDP-N-acetylglucosamine]
uptake in vesicles expressing ROCK1, increased in comparison to the control (ROCK1): 3 fold

CC(C)C[C@@H](C=O)NC(=O)[C@H](CC(C)C)NC(=O)[C@H](CC(C)C)NC(=O)OCc1ccccc1 [MG132] (Cbz-Leu-Leu-Leu-aldehyde)
effect on myc-CKX1 levels in rock1 background (myc-CKX1; rock1 background): strongly stabilized myc-CKX1 levels
effect on level of myc-CKX1 in wild type (myc-CKX1; wild type background): increased the level of myc-CKX1
